Molecular target: α-glucosidase (Saccharomyces cerevisiae, UniProt P53341)
Assay: α-Glucosidase inhibitory assay
Type: biochemical
Conditions: in vitro
Description: Alpha-glucosidase is an enzyme that hydrolyzes the carbohydrates to monosaccharides in the final step of carbohydrate digestion. […] In order to search for bioactive substances to treat type 2 diabetes using Diaphragma juglandis Fructus, all isolated constituents (1–37) were assessed for antidiabetic activity using an in vitro α-glycosidase inhibition assay.
The α-glucosidase was obtained from Sigma-Aldrich (Shanghai) Trading Co., Ltd (Shanghai, China). p-nitrophenyl-α-D-glucopyranoside was obtained from Macklin Co., Ltd. (Lot# C12592180, Shanghai, China).
The α-glucosidase inhibition assay was performed according to a previous report with a slight difference: the concentration of α-glucosidase was diluted to 0.15 unit/mL. The volume of α-glucosidase added to the 96-well plate was 10 μL.

Chain of α-glucosidase (P53341 whole entry): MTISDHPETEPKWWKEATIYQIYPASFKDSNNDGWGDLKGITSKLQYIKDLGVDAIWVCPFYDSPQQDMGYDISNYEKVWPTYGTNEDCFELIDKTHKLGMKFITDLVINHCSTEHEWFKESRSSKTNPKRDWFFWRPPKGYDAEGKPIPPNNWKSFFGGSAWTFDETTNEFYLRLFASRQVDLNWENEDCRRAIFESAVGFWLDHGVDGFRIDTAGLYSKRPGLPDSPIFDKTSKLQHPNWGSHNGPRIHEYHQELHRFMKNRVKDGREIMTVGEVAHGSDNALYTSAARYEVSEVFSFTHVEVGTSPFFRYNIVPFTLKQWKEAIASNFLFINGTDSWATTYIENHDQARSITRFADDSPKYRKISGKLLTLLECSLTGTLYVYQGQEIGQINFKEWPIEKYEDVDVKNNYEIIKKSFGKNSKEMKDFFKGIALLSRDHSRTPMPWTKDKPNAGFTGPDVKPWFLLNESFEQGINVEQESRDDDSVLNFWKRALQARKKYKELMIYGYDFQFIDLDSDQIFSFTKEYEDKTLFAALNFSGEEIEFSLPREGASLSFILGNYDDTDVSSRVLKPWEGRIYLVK

Row | Structure (SMILES) | α-glucosidase inhibition activity (in words)
1 | Oc1cc(O)c2c(c1)O[C@@H](c1ccc(O)c(O)c1)[C@H](O)C2 [Compound 16, (+)-catechin] | quite potent
2 | O=C1c2c(O)cc(O)cc2OC(c2ccc(O)c(O)c2)C1O (stereo not shown) [Compound 13, taxifolin] | quite potent
3 | O=c1cc(-c2ccc(O)c(O)c2)oc2cc(O)cc(O)c12 [Compound 28, luteolin] | quite potent
4 | O=c1c(O)c(-c2ccc(O)c(O)c2)oc2cc(O)cc(O)c12 [Compound 21, quercetin] | quite potent

— paper PMC9143591, “The Chemical Constituents of Diaphragma Juglandis Fructus and Their Inhibitory Effect on α-Glucosidase Activity” (Molecules, 2022)
